Measurements reported in US20100266501A1, “METHODS AND COMPOSITIONS FOR ORGAN PROTECTION” (University Of Vermont and State Agricltural College, priority 2006, published 2010).
Where two headings read alike, the source gives them in different places.

Experiments:
[1] = system: pig model of myocardial ischemia and reperfusion; assay: Ischemia-reperfusion model: infarct morphology (circumference/area index); format: in vivo; conditions: for morphologic appearance of the infarcted area: TTC stained sections
Description: (§1) Sedation, anesthesia and instrumentation of the pigs were accomplished in accordance to the dose escalation study. All pigs received a bolus of 2000 units of heparin sulfate after obtaining femoral artery access. A guide wire (PT2, 0.014″×185 cm, Boston Scientific, Natick, Mass.) was then advanced into the left anterior descending (LAD) coronary artery followed by inflation of a balloon (Monorail Maverick, 2.5×15 mm, Boston Scientific) in its mid-portion, just distal to the second diagonal branch. Total occlusion was confirmed by contrast injections after increasing balloon pressures in 1 atm increments. Total occlusion time was 60 minutes. Throughout the experiment, the animals were monitored by continuous digital ECG recordings and guide catheter pressure recordings. Digital cineangiograpic recordings were obtained in straight anterioposterior projections. In order to quantify visual differences in infarct morphology, a circumference/area index of the infarcted myocardium using TTC stained sections was calculated.

[2] = system: pig model of myocardial ischemia and reperfusion; assay: Ischemia-reperfusion model: periprocedural arrhythmias (VT, VF, DCCV); format: in vivo; conditions: 200 ml contrast, NAC 11.3 mg/mL
Description: as §1, with “projections.” for “projections. In order to quantify visual differences in infarct morphology, a circumference/area index of the infarcted myocardium using TTC stained sections was calculated.”
Blood pressure, heart rate, and high-resolution ECG were continuously recorded beginning at the time of coronary occlusion and for 30 minutes following reperfusion. The occurrence of ventricular tachycardia during coronary occlusion or reperfusion (defined as more than 4 consecutive ventricular ectopic beats) and ventricular fibrillation were recorded. […] (DCCV) was provided for ventricular fibrillation and ventricular tachycardia with hemodynamic instability. No antiarrhythmic medications were used.

[3] = Intracoronary NAC dose escalation: ECG (QT interval, arrhythmias, heart rate)
Description: Accordingly, the effects of escalating doses of intracoronary NAC (Cumberland Pharmaceuticals, Nashville, Tenn.) mixed with contrast medium on blood pressure and cardiac rhythm were tested in two healthy farm raised pigs (23 and 26 kg).
The pigs were anesthetized with Isoflurane after intramuscular pre-medication with Ketamine (20 mg/kg). After endotracheal intubation they were ventilated (Harvard Apparatus, Holliston, Mass.) with a mixture of oxygen and 1-3 percent isoflurane. A surgical level of anesthesia was confirmed prior to obtaining percutaneous femoral arterial access using a 6-French sheath. A JR 4 or HS guide catheter was inserted and placed at the ostium of the left main coronary artery. Continuous twelve-lead ECG and catheter based pressures were digitally recorded with the administration of bolus injections of NAC. The initial dose was 56.6 mg of NAC diluted in 5 mL of. Iopamidol (Isovue 370®, Bracco Pharmaceuticals, Princeton, N.J.). This dose of 11.3 mg NAC/mL is referred to as the target dose because it would deliver a dose of 1850 milligrams of NAC to an average patient undergoing a percutaneous coronary intervention. […] Following at least five injections of the target dose, a total of four high dose injections were performed, two of 250 mg per 5 mL bolus and two of 500 mg NAC per 5 mL bolus (equal to 4.4× and 8.8× target dose). […] Blood pressure and QT interval were analyzed at the end of three succeeding respiratory cycles (6, 12 and 18 seconds after injection) and are reported as a mean percent change from baseline.
In the dose escalation study the effect of each injection on blood pressure and QT interval was expressed as a percentage change from the immediately preceding baseline and analyzed by a paired student's t-test. A p-value of less than 0.05 was accepted as statistically significant.

[4] = system: myocyte nuclei; assay: Ischemia-reperfusion model: TUNEL assay for apoptosis in myocardium; format: in vivo, pig; conditions: for nuclei stained positive for apoptosis (TUNEL): infarct tissue; for nuclei stained positive for apoptosis (TUNEL) / nuclei stained TUNEL positive: mean±SD; for nuclei stained TUNEL positive: non-infarcted area at risk
Description: Sedation, anesthesia and instrumentation of the pigs were accomplished in accordance to the dose escalation study. All pigs received a bolus of 2000 units of heparin sulfate after obtaining femoral artery access. A guide wire (PT2, 0.014″×185 cm, Boston Scientific, Natick, Mass.) was then advanced into the left anterior descending (LAD) coronary artery followed by inflation of a balloon (Monorail Maverick, 2.5×15 mm, Boston Scientific) in its mid-portion, just distal to the second diagonal branch. Total occlusion was confirmed by contrast injections after increasing balloon pressures in 1 atm increments. Total occlusion time was 60 minutes. Throughout the experiment, the animals were monitored by continuous digital ECG recordings and guide catheter pressure recordings. Digital cineangiograpic recordings were obtained in straight anterioposterior projections. TUNEL assays were performed on samples from […] area at risk and infarcted tissue to investigate if NAC reduces ischemia-reperfusion induced apoptosis. A total of four samples from two control animals and six samples from three NAC treated animals were analyzed. Tissue sections were deparaffinized and permeabilized with proteinase K (25 μg/ml in 100 mM Tris.HCl). An in situ apoptotic cell death detection kit (TMR red; Roche Applied Bio Sciences, Indianapolis, Ind.) based on the TUNEL assay was used to detect apoptotic cells. Sections were mounted with Vectashield mounting medium containing 4′,6-diamidino-2-phenylindole (DAPI; Vector Laboratories, Burlingame, Calif.) as a nuclear counterstain. Sections were examined with a Zeiss Axiovert 200 microscope and Zeiss LSM 510 META laser scanning confocal microscope. The percentage of apoptotic nuclei per section was calculated by counting the total number of TUNEL-staining nuclei divided by the total number of DAPI-positive nuclei in 10 randomly selected fields at ×40 magnification (14).

[5] = system: pig model of myocardial ischemia and reperfusion; assay: Ischemia-reperfusion model: area at risk and infarct size (Evans Blue / TTC staining); format: in vivo; conditions: for area at risk as a percentage of ventricular myocardium / infarct size as a percentage of the area at risk / infarct size as percent of ventricular myocardium (TTC staining): 60 min LAD occlusion, 24 h reperfusion, 200 ml contrast, NAC 11.3 mg/mL, n=5, mean±SD
Description: Sedation, anesthesia and instrumentation of the pigs were accomplished in accordance to the dose escalation study. All pigs received a bolus of 2000 units of heparin sulfate after obtaining femoral artery access. A guide wire (PT2, 0.014″×185 cm, Boston Scientific, Natick, Mass.) was then advanced into the left anterior descending (LAD) coronary artery followed by inflation of a balloon (Monorail Maverick, 2.5×15 mm, Boston Scientific) in its mid-portion, just distal to the second diagonal branch. Total occlusion was confirmed by contrast injections after increasing balloon pressures in 1 atm increments. Total occlusion time was 60 minutes. Throughout the experiment, the animals were monitored by continuous digital ECG recordings and guide catheter pressure recordings. Digital cineangiograpic recordings were obtained in straight anterioposterior projections. A total of 200 ml of contrast medium was administered to each animal. Approximately half of the contrast volume was used during diagnostic angiography and insertion of the guidewire into the LAD. The remaining contrast was injected after deflation of the balloon during the reperfusion period. After 20-30 minutes of reperfusion, catheter, balloon and guide wire were withdrawn. An Angio-Seal 6-French femoral artery closure device (St. Jude Medical, St. Paul, Minn.) was deployed and the Isoflurane was discontinued. After 30 minutes the ECG recording was stopped and the animals were extubated and transferred to the animal housing facility. No animal was lost during the housing period. Twenty four hours later the animals were sedated and intubated. The thoracic cavity was opened by a midline sternotomy and ligatures were placed at the site of the proximal balloon occlusion, the aortic arch branches and the descending aorta. The right carotid artery was cannulated and a plastic catheter advanced into the aortic root. […] The vessels were occluded in the following order: LAD, aortic arch branches and descending aorta. The dye was then injected at a perfusion pressure of 120 mmHg until the myocardium was stained. […] In the NAC group two animals could not be used for the myocardial infarction analysis (insufficient Evans Blue staining, unsuccessful electrical cardioversion). Evans Blue stained hearts were harvested and the atria were removed. The ventricles were sliced into one centimeter slices in a bread loaf fashion, with the first slice at the apex. At least five slices could be obtained in all hearts. The basal surfaces of the slices were sequentially imaged. Small samples of myocardium from areas of necrosis, area at risk and normal left ventricular myocardium were obtained from the apical side of the second and third slice and stored for additional analyses. […] The basal surfaces were then re-imaged. Area analysis (planimetry) was performed with the NIH-Image program (Scion Image Version 4.0.2). The size of the area at risk and infarct size for each slice was determined by multiplying the mass of the slice by the fraction of area at risk or by the fraction of area of infarction. Total infarct size and the area at risk size were expressed as a percentage of biventricular mass to account for the anterior right ventricular infarction.

[6] = Ischemia-reperfusion model: serum creatinine; format: in vivo, pig; conditions: for baseline creatinine level / creatinine level: serum, mean±SD; for baseline creatinine level: prior to contrast medium administration; for creatinine level: twenty four hours after ischemia-reperfusion, 200 ml contrast
Description: Sedation, anesthesia and instrumentation of the pigs were accomplished in accordance to the dose escalation study. All pigs received a bolus of 2000 units of heparin sulfate after obtaining femoral artery access. A guide wire (PT2, 0.014″×185 cm, Boston Scientific, Natick, Mass.) was then advanced into the left anterior descending (LAD) coronary artery followed by inflation of a balloon (Monorail Maverick, 2.5×15 mm, Boston Scientific) in its mid-portion, just distal to the second diagonal branch. Total occlusion was confirmed by contrast injections after increasing balloon pressures in 1 atm increments. […] Throughout the experiment, the animals were monitored by continuous digital ECG recordings and guide catheter pressure recordings. Digital cineangiograpic recordings were obtained in straight anterioposterior projections. A total of 200 ml of contrast medium was administered to each animal. Approximately half of the contrast volume was used during diagnostic angiography and insertion of the guidewire into the LAD. The remaining contrast was injected after deflation of the balloon during the reperfusion period. After 20-30 minutes of reperfusion, catheter, balloon and guide wire were withdrawn. An Angio-Seal 6-French femoral artery closure device (St. Jude Medical, St. Paul, Minn.) was deployed and the Isoflurane was discontinued. After 30 minutes the ECG recording was stopped and the animals were extubated and transferred to the animal housing facility. No animal was lost during the housing period. Serum was collected prior to contrast exposure and 24 hours after infarction and analyzed for creatinine. An attempt was also made to assay Cystatin C as a second renal marker. However, Cystatin C was undetectable in pig serum.

[7] = 250 mg NAC per 5 mL bolus, six seconds
[8] = 500 mg NAC per 5 mL bolus, six seconds
[9] = 5 ml contrast with target dose NAC 11.3 mg/mL, 6 seconds after injection
[10] = target dose NAC 11.3 mg/mL, 18 seconds after injection

C[C@H](O)C(=O)Nc1c(I)c(C(=O)NC(CO)CO)c(I)c(C(=O)NC(CO)CO)c1I [Iopamidol]
morphologic appearance of the infarcted area [1]: homogeneous with discrete borders | ventricular arrhythmias during ischemia-reperfusion [2]: none of the control ischemia-reperfusion animals developed ventricular fibrillation or required DCCV | QT changes ([3]; contrast injections without NAC): No significant QT changes | nuclei stained positive for apoptosis (TUNEL) [4]: 35.8±5.7% | nuclei stained TUNEL positive [4]: 32.1±4.0% | area at risk as a percentage of ventricular myocardium [5]: 15.1±4.8% | infarct size as a percentage of the area at risk [5]: 92.4±6.3% | infarct size as percent of ventricular myocardium (TTC staining) [5]: 13.9±4.5% | increase in creatinine levels ([6]; 200 ml of contrast without periprocedural hydration, 24 h): 37% | baseline creatinine level [6]: 1.32 ± 0.26 mg/dL | creatinine level [6]: 1.82 ± 0.24 mg/dL | blood pressure effects of control injections (contrast only, intracoronary injection): did not show such effects

CC(=O)N[C@@H](CS)C(=O)O [NAC, N-acetylcysteine]
morphologic appearance of the infarcted area [1]: mottled appearance | ratio of infarct circumference to infarct area ([1]; compared with control animals): greater | ventricular arrhythmias during ischemia-reperfusion [2]: developed ventricular tachycardia, fibrillation or both | QT interval prolongation ([3]; 250 mg NAC bolus, 18 seconds): normalized | QT interval prolongation ([3]; 250 mg NAC bolus, immediately after injection): 16% | time to complete recovery of QT interval to baseline ([3]; 500 mg NAC bolus): 45 to 60 s | QT interval prolongation ([3]; 500 mg NAC bolus, 18 seconds): 9% | QT interval prolongation ([3]; 500 mg NAC bolus, immediately after injection): 35% | arrhythmias or changes in heart rate after injections of contrast containing NAC ([3]; healthy pigs, intracoronary bolus injections): did not cause any arrhythmias or changes in heart rate | QT interval prolongation ([3]; target dose 11.3 mg/mL, eighteen seconds after injection): significant QT prolongation was no longer present | QT interval prolongation ([3]; target dose 11.3 mg/mL, six seconds after injection): 10% | nuclei stained positive for apoptosis (TUNEL) [4]: 33.0±3.7% | nuclei stained TUNEL positive [4]: 1.6±1.6% | TUNEL positive myocyte nuclei ([4]; non-ischemic myocardium (non-LAD territories), NAC treated vs control): without a significant difference | area at risk as a percentage of ventricular myocardium [5]: 18.4±1.8% | infarct size as a percentage of the area at risk [5]: 44.7±12.4% | infarct size as percent of ventricular myocardium (TTC staining) [5]: 8.2±2.3% | reduction in infarct size ([5]; NAC-contrast vs contrast-only): approximately 50% | reduction of the rise in post procedure creatinine levels ([6]; NAC provided during contrast administration vs contrast-only): about 60% | baseline creatinine level [6]: 1.29 ± 0.15 mg/dL | creatinine level [6]: 1.49 ± 0.06 mg/dL | reduction of diastolic blood pressure [7]: 26% | reduction of systolic blood pressure [7]: 14% | time to recovery of diastolic pressures (250 mg and 500 mg bolus): 45 to 60 s | systolic blood pressure (250 mg and 500 mg bolus, after 18 seconds): normalized | reduction of diastolic blood pressure [8]: 43% | reduction of systolic blood pressure [8]: 48% | reduction in diastolic blood pressure [9]: 17% | reduction of systolic blood pressure [9]: 5% | time to complete normalization of blood pressure (target dose NAC 11.3 mg/mL): 45 to 60 s | decrease in diastolic pressure [10]: about 7% | systolic pressure [10]: returned to pre-injection pressures
